For 22 compounds, GI50 and IC50 results are on record in ChEMBL document CHEMBL4406868, “Structure-based design and SAR development of novel selective polo-like kinase 1 inhibitors having the tetrahydropteridin scaffold” (Eur J Med Chem, 2019).

Structures are written as SMILES. Bounds are passed on as bounds.

For one test, the system named is NCI-H1975. In words: cells. The conditions noted are these: Homo sapiens, NCI-H1975, 72 h.
In a further test the test system is A549. Description: cells. The conditions noted are these: Homo sapiens, A549, 72 h.
In another test the test system is K562. Description: cells. To be noted: Homo sapiens, K562, 72 h.
Another test has as its system MCF7. Description: cells. The conditions noted are these: Homo sapiens, MCF7, 72 h.
The next test concerns Huh-7. In words: cells. To be noted: Homo sapiens, Huh-7, 72 h.
Another test has as its system HeLa. In words: cells. To be noted: Homo sapiens, 72 h.
The target in test [1] is Serine/threonine-protein kinase PLK2 (Homo sapiens, UniProt Q9NYY3). In words: Inhibition of recombinant full length human GST-tagged PLK2 expressed in baculovirus expression system using ser/thr 16 as substrate incubated for 1 hr by Z'-LYTE assay.
Serine/threonine-protein kinase PLK2, sequence (Q9NYY3 whole entry): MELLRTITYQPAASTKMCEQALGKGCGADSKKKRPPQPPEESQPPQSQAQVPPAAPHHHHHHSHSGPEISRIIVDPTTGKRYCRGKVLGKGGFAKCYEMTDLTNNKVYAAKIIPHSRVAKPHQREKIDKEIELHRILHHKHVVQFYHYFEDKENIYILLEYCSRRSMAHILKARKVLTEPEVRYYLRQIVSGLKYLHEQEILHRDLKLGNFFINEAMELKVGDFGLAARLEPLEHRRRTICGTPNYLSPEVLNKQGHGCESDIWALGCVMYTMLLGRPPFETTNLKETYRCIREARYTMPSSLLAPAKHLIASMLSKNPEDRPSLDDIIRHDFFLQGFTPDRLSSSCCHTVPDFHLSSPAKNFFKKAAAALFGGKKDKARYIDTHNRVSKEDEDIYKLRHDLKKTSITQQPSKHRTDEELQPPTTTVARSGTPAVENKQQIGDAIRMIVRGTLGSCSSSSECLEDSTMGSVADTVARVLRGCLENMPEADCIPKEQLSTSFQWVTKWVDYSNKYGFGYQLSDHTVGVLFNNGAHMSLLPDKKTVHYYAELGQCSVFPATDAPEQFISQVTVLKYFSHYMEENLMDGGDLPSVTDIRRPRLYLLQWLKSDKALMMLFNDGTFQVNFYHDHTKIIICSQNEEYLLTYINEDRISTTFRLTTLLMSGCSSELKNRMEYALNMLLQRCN

For the compound `CC[C@@H]1C(=O)N(CCO)c2cnc(Nc3ccc(C(=O)NC4CCCC4)cc3OC)nc2N1C1CCCC1`, the GI50 – broadly, the concentration that inhibits growth by half – is 3830 nM with NCI-H1975; 5020 nM in the test on A549; 4440 nM in the test with K562; 3720 nM with MCF7; 4470 nM with Huh-7; 4820 nM in the test with HeLa.
Turning to `CC[C@@H]1C(=O)N(C)c2cnc(Nc3cc(F)c(C(=O)NC)cc3OCCO)nc2N1C1CCCC1`, the GI50 is 510 nM in the test on NCI-H1975; 171 nM in the test on A549; 120 nM in the test on K562; 222 nM with MCF7; 113 nM in the test with Huh-7; 47.1 nM in the test on HeLa.
In the case of `CC[C@@H]1C(=O)N(C)c2cnc(Nc3ccc(C(=O)NC)cc3OCCO)nc2N1C1CCCC1`, the GI50 in the test on NCI-H1975 turned out to be 361 nM; in the test on A549 it was 84.4 nM; in the test on K562, 46.9 nM; in the test with MCF7, 135 nM; in the test on Huh-7, 52.4 nM; with HeLa, 25.4 nM.
As to `CC[C@@H]1C(=O)N(C)c2cnc(Nc3ccc(C(=O)NC4CC4)cc3OCCO)nc2N1C1CCCC1`, the GI50 turned out to be 676 nM with NCI-H1975; 322 nM in the test with A549; 143 nM in the test on K562; 269 nM in the test with MCF7; 197 nM in the test on Huh-7; 129 nM in the test on HeLa.
For `CC[C@@H]1C(=O)N(C)c2cnc(Nc3ccc(C(N)=O)cc3OCCO)nc2N1C1CCCC1`, the GI50 in the test on NCI-H1975 amounted to 1200 nM; with A549, 447 nM; with K562, 132 nM; in the test on MCF7 it was 252 nM; in the test with Huh-7, 129 nM; with HeLa, 118 nM. Moreover, the half-maximal inhibitory concentration (IC50) – broadly, the concentration needed to halve the response being measured – in test [1] was 290 nM.
Take `CC[C@@H]1C(=O)N(C)c2cnc(Nc3ccc(C(=O)NC4CCOCC4)cc3OCCO)nc2N1C(C)C`: the GI50 was 3550 nM with NCI-H1975; 3440 nM in the test on A549; 773 nM in the test on K562; 1270 nM in the test on MCF7; 722 nM with Huh-7; 1750 nM in the test on HeLa.
As for `CC[C@@H]1C(=O)N(C)c2cnc(Nc3cc(F)c(C(=O)NC4CCOCC4)cc3OCCO)nc2N1C(C)C`, the GI50 with NCI-H1975 came out at 1920 nM; in the test with A549, 1170 nM; in the test on K562, 915 nM; in the test on MCF7, 931 nM; in the test with Huh-7, 1110 nM; with HeLa, 351 nM. In addition, the half-maximal inhibitory concentration (IC50) in test [1] turned out to be 869 nM.
Consider `CCNC(=O)c1ccc(Nc2ncc3c(n2)N(C2CCCC2)[C@H](CC)C(=O)N3C)c(OCCO)c1`, for which the concentration for 50% growth inhibition (GI50) in the test on NCI-H1975 was 519 nM; in the test with A549, 197 nM; in the test with K562, 98.9 nM; in the test with MCF7, 331 nM; in the test on Huh-7, 81.6 nM; in the test on HeLa it was 82.3 nM.
Consider `CC[C@@H]1C(=O)N(C)c2cnc(Nc3ccc(C(C)=O)cc3OCCO)nc2N1C1CCCC1`, for which the GI50 turned out to be 220 nM with NCI-H1975; 87.6 nM in the test with A549; 38.1 nM in the test on K562; 107 nM in the test with MCF7; 56 nM in the test on Huh-7; 42 nM in the test on HeLa. In addition, the IC50 in test [1] stood at 132 nM.
Regarding `CC[C@@H]1C(=O)N(C)c2cnc(Nc3ccc(C(=O)NC(C)C)cc3OCCO)nc2N1C1CCCC1`, the 50% growth inhibitory concentration (GI50) in the test with NCI-H1975 is 677 nM; in the test on A549 it was 79.3 nM; in the test on K562 it was 47.4 nM; in the test on MCF7, 162 nM; in the test with Huh-7, 65.9 nM; with HeLa it was 24.7 nM.
Regarding `CC[C@@H]1C(=O)N(C)c2cnc(Nc3ccc(C(=O)NC4CCN(C)CC4)cc3OCCO)nc2N1C(C)C`, the 50% growth inhibitory concentration (GI50) in the test on NCI-H1975 was over 10000 nM; in the test on A549, over 10000 nM; with K562, 6500 nM; in the test with MCF7, over 10000 nM; in the test with Huh-7 it was over 10000 nM; with HeLa it was over 10000 nM.
Take `CC[C@@H]1C(=O)N(C)c2cnc(Nc3ccc(C(=O)NCCN4CCN(C)CC4)cc3OCCO)nc2N1C1CCCC1`: the 50% growth inhibitory concentration (GI50) in the test with NCI-H1975 is 3810 nM; in the test with A549, 540 nM; in the test with K562 it was 187 nM; in the test with MCF7 it was 871 nM; with Huh-7, 876 nM; with HeLa it was 892 nM.
In the case of `CCC1C(=O)N(C)c2cnc(Nc3cc(F)c(C(=O)NC4CCCC4)cc3OCCO)nc2N1C1CCCC1` (stereo unspecified), the concentration for 50% growth inhibition (GI50) was found to be 567 nM in the test on NCI-H1975; 352 nM with A549; 265 nM in the test with K562; 158 nM in the test with MCF7; 349 nM in the test with Huh-7; 123 nM in the test with HeLa.
Turning to `CC[C@@H]1C(=O)N(C)c2cnc(Nc3cc(F)c(C(=O)NCCN(C)C)cc3OCCO)nc2N1C1CCCC1`, the GI50 in the test with NCI-H1975 was 5130 nM; with A549, 1720 nM; with K562, 731 nM; in the test on MCF7, 1550 nM; in the test with Huh-7, 807 nM; in the test with HeLa it was 435 nM.
In the case of `CC[C@@H]1C(=O)Nc2cnc(Nc3ccc(C(=O)NC4CCCC4)cc3OC)nc2N1C1CCCC1`, the GI50 was determined as 1100 nM in the test on NCI-H1975; 729 nM in the test with A549; 810 nM in the test on K562; 744 nM in the test on MCF7; 430 nM with Huh-7; 728 nM with HeLa.
With `CC[C@@H]1C(=O)N(C)c2cnc(Nc3ccc(C(=O)NCCN(C)C)cc3OCCO)nc2N1C1CCCC1`, the GI50 is 3200 nM in the test with NCI-H1975; 283 nM in the test on A549; 58.2 nM with K562; 312 nM in the test with MCF7; 239 nM in the test with Huh-7; 133 nM in the test on HeLa. Further, in test [1], the IC50 was 265 nM.
On to `CC[C@@H]1C(=O)N(C)c2cnc(Nc3ccc(C(=O)NC4CCN(C(C)C)CC4)cc3OCCO)nc2N1C1CCCC1`, for which the GI50 in the test on NCI-H1975 worked out at 171 nM; in the test on A549 it was 138 nM; in the test on K562 it was 65.8 nM; in the test with MCF7, 140 nM; in the test with Huh-7, 216 nM; in the test with HeLa, 122 nM.
Consider `CC[C@@H]1C(=O)N(COC)c2cnc(Nc3ccc(C(=O)NC4CCCC4)cc3OC)nc2N1C1CCCC1`, for which the 50% growth inhibitory concentration (GI50) with NCI-H1975 is over 10000 nM; in the test on A549, 8130 nM; with K562, over 10000 nM; with MCF7, over 10000 nM; in the test with Huh-7 it was 6760 nM; in the test with HeLa, over 10000 nM.
Consider `CC[C@@H]1C(=O)N(C)c2cnc(Nc3cc(F)c(C(=O)NC4CCN(C)CC4)cc3OCCO)nc2N1C(C)C`, for which the concentration for 50% growth inhibition (GI50) in the test with NCI-H1975 was found to be 2120 nM; in the test with A549, 852 nM; with K562, 540 nM; with MCF7, 833 nM; in the test on Huh-7, 885 nM; with HeLa, 274 nM.
Take `CC[C@@H]1C(=O)N(C)c2cnc(Nc3ccc(C(=O)NC4CCOCC4)cc3OCCO)nc2N1C1CCCC1`: the GI50 in the test with NCI-H1975 was 166 nM; in the test with A549 it was 79.4 nM; with K562, 63.8 nM; in the test with MCF7, 64.3 nM; with Huh-7, 19.9 nM; in the test with HeLa it was 41.9 nM.
For `CC[C@@H]1C(=O)N(C)c2cnc(Nc3ccc(C(=O)NC4CCCC4)cc3OCCO)nc2N1C(C)C`, the GI50 in the test on NCI-H1975 was 2370 nM; in the test on A549, 2590 nM; in the test on K562, 1250 nM; in the test on MCF7 it was 1820 nM; in the test with Huh-7, 1450 nM; in the test on HeLa, 1120 nM.
`CC[C@@H]1C(=O)N(C)c2cnc(Nc3cc(F)c(C(=O)NCCN4CCOCC4)cc3OCCO)nc2N1C1CCCC1`: the concentration for 50% growth inhibition (GI50) in the test on NCI-H1975 turned out to be 1150 nM; with A549, 172 nM; in the test on K562, 100 nM; in the test on MCF7 it was 405 nM; in the test with Huh-7, 232 nM; with HeLa, 36 nM.
